# What was measured:
# ADJ/PC6A plasmacytoma = assay: activity against ADJ/PC6A plasmacytoma grown subcutaneously in mice, oral administration; type: in vivo, female Balb C^- mice; conditions: for ED90 (dose level causing a 90% reduction in tumor size): suspension in arachis oil
# Description: (§1) Additionally, the same compounds were tested for activity against ADJ/PC6A plasmacytoma grown subcutaneously in female Balb C^- mice following oral administration as a suspension in arachis oil. Dosage levels were at 100μ mole/kg of body weight for pharmacokinetic tests to establish the extent of absorption into the systemic circulation.
# (§2) Results are presented in terms of concentration (μg/ml) of Pt in the blood and cumulative percentage dose in urine, cage wash and faeces, all after specified time intervals. Results for anti-tumor effect are expressed as LD50 (mg/kg), ED90 (mg/kg), and TI (LD50 /ED90). The figures for LD50 (the dose level causing 50% deaths) and ED90 (the dose level causing a 90% reduction in tumor size) are determined by administering dosage levels ranging from lethal to non-tumor inhibitory. The therapeutic index (TI) is an indication of the selectivity of the compound as an anti-tumor agent.
# B16 melanoma = assay: anti-tumor activity against B16 melanoma in BDF1 female mice, i.p. 9 daily doses; type: in vivo; parameters: median survival time (MST): unit not given here; conditions: for % T/C (MST/MST control×100) / median survival time (MST): 9 daily doses from Day 1; for average weight change (AWC): by Day 6
# Description: (§3) Compounds according to the invention were screened for anti-tumor activity against L1210 leukaemia and B16 melanoma in mice. The compounds were administered intraperitoneally as solutions or suspensions in water and "Tween" 80 as carrier to CDF1 male mice (L1210) and BDF1 female mice (B16). […] For each dose level, results are quoted in terms of median survival time (MST); the comparative effect (i.e. MST/MST control×100); average weight change (AWC) by Day 5 (L1210) or Day 6 (B16); and the number of mice alive (MA) at Day 5 (L1210) or Day 10 (B16).
# (§4) Results were as follows for the compounds as prepared in Examples 3 and 4.
# 2. B16 (0.5 ml 10% BREI): treatment consisted of 9 daily doses beginning at Day 1.
# L1210 leukaemia = assay: anti-tumor activity against L1210 leukaemia in CDF1 male mice, i.p. single dose Day 1; type: in vivo; parameters: median survival time (MST): unit not given here; conditions: for % T/C (MST/MST control×100) / median survival time (MST): single dose Day 1; for average weight change (AWC): by Day 5
# Description: as §3, §4
# 1. L1210 (1×10^6 cells): treatment consisted of single dose on Day 1.
# [1] = pharmacokinetic tests: Pt in blood and cumulative percentage dose in urine, cage wash and faeces after oral administration; type: in vivo, female Balb C^- mice
# Description: as §1, §2
# [2] = LD50 (dose level causing 50% deaths), oral administration; type: in vivo, female Balb C^- mice; conditions: suspension in arachis oil
# Description: as §1, §2
# malignant tumor = conditions: certain forms of malignant tumor in humans; cited from earlier work
structure (smiles),measurement,setting,value
"N.NC1CCCCC1.O=C([O-])C1(C(=O)[O-])CCC1.[Pt+2] [Ex. 3, ammine(cyclobutane-1,1-dicarboxylato)cyclohexylamine platinum(II)]",therapeutic index TI (LD50/ED90),ADJ/PC6A plasmacytoma,22
same,ED90 (dose level causing a 90% reduction in tumor size),ADJ/PC6A plasmacytoma,73 mg/kg
same,% T/C (MST/MST control×100),B16 melanoma; 6 mg/kg i.p.,136%
same,median survival time (MST),B16 melanoma; 6 mg/kg i.p.,26.5
same,number of mice alive (MA),"B16 melanoma; 6 mg/kg i.p., 9 daily doses, at Day 10",10/10
same,average weight change (AWC),"B16 melanoma; 6 mg/kg i.p., 9 daily doses",-0.3 g
same,% T/C (MST/MST control×100),B16 melanoma; 12 mg/kg i.p.,149%
same,median survival time (MST),B16 melanoma; 12 mg/kg i.p.,29.0
same,number of mice alive (MA),"B16 melanoma; 12 mg/kg i.p., 9 daily doses, at Day 10",10/10
same,average weight change (AWC),"B16 melanoma; 12 mg/kg i.p., 9 daily doses",-1.0 g
same,% T/C (MST/MST control×100),B16 melanoma; 18 mg/kg i.p.,174%
same,median survival time (MST),B16 melanoma; 18 mg/kg i.p.,34.0
same,number of mice alive (MA),"B16 melanoma; 18 mg/kg i.p., 9 daily doses, at Day 10",10/10
same,average weight change (AWC),"B16 melanoma; 18 mg/kg i.p., 9 daily doses",-1.6 g
same,% T/C (MST/MST control×100),B16 melanoma; 24 mg/kg i.p.,177%
same,median survival time (MST),B16 melanoma; 24 mg/kg i.p.,34.5
same,number of mice alive (MA),"B16 melanoma; 24 mg/kg i.p., 9 daily doses, at Day 10",10/10
same,average weight change (AWC),"B16 melanoma; 24 mg/kg i.p., 9 daily doses",-1.4 g
same,% T/C (MST/MST control×100),L1210 leukaemia; 40 mg/kg i.p.,154%
same,median survival time (MST),L1210 leukaemia; 40 mg/kg i.p.,10.0
same,number of mice alive (MA),"L1210 leukaemia; 40 mg/kg i.p., single dose, at Day 5",5/5
same,average weight change (AWC),"L1210 leukaemia; 40 mg/kg i.p., single dose",-0.1 g
same,% T/C (MST/MST control×100),L1210 leukaemia; 80 mg/kg i.p.,185%
same,median survival time (MST),L1210 leukaemia; 80 mg/kg i.p.,12.0
same,number of mice alive (MA),"L1210 leukaemia; 80 mg/kg i.p., single dose, at Day 5",6/6
same,average weight change (AWC),"L1210 leukaemia; 80 mg/kg i.p., single dose",-2.4 g
same,% T/C (MST/MST control×100),L1210 leukaemia; 120 mg/kg i.p.,185%
same,median survival time (MST),L1210 leukaemia; 120 mg/kg i.p.,12.0
same,number of mice alive (MA),"L1210 leukaemia; 120 mg/kg i.p., single dose, at Day 5",6/6
same,average weight change (AWC),"L1210 leukaemia; 120 mg/kg i.p., single dose",-0.6 g
same,% T/C (MST/MST control×100),L1210 leukaemia; 160 mg/kg i.p.,231%
same,median survival time (MST),L1210 leukaemia; 160 mg/kg i.p.,15.0
same,number of mice alive (MA),"L1210 leukaemia; 160 mg/kg i.p., single dose, at Day 5",5/6
same,average weight change (AWC),"L1210 leukaemia; 160 mg/kg i.p., single dose",-4.5 g
same,Blood conc. of Pt,"[1]; 1 hr, oral, 100μ mole/kg, suspension in arachis oil",0.62 ± 0.11 μg/ml of whole blood
same,Blood conc. of Pt,"[1]; 2 hrs, oral, 100μ mole/kg, suspension in arachis oil",0.80 ± 0.08 μg/ml of whole blood
same,Blood conc. of Pt,"[1]; 4 hrs, oral, 100μ mole/kg, suspension in arachis oil",0.64 ± 0.03 μg/ml of whole blood
same,Blood conc. of Pt,"[1]; 7 hrs, oral, 100μ mole/kg, suspension in arachis oil",0.51 ± 0.09 μg/ml of whole blood
same,Cage wash (cumulative %),"[1]; 24 hrs, oral, 100μ mole/kg",5.1 ± 1.2%
same,Faeces dose (cumulative %),"[1]; 24 hrs, oral, 100μ mole/kg",57.0 ± 14.1%
same,Urine dose (cumulative %),"[1]; 24 hrs, oral, 100μ mole/kg",11.4 ± 2.1%
same,Blood conc. of Pt,"[1]; 24 hrs, oral, 100μ mole/kg, suspension in arachis oil",0.16 ± 0.05 μg/ml of whole blood
same,Cage wash (cumulative %),"[1]; 48 hrs, oral, 100μ mole/kg",6.4 ± 1.8%
same,Faeces dose (cumulative %),"[1]; 48 hrs, oral, 100μ mole/kg",62.1 ± 13.7%
same,Urine dose (cumulative %),"[1]; 48 hrs, oral, 100μ mole/kg",12.8 ± 1.8%
same,Blood conc. of Pt,"[1]; 48 hrs, oral, 100μ mole/kg, suspension in arachis oil",0.16 ± 0.03 μg/ml of whole blood
same,LD50 (dose level causing 50% deaths),[2],1600 mg/kg
"[NH2][Pt]1([NH]C2CCCC2)[O]C(=O)C2(CCC2)C(=O)[O]1 [Ex. 4, ammine(cyclobutane-1,1-dicarboxylato)cyclopentylamine platinum(II)]",therapeutic index TI (LD50/ED90),ADJ/PC6A plasmacytoma,32
same,ED90 (dose level causing a 90% reduction in tumor size),ADJ/PC6A plasmacytoma,50 mg/kg
same,% T/C (MST/MST control×100),B16 melanoma; 8 mg/kg,115%
same,median survival time (MST),B16 melanoma; 8 mg/kg,22.5
same,% T/C (MST/MST control×100),B16 melanoma; 13 mg/kg i.p.,133%
same,median survival time (MST),B16 melanoma; 13 mg/kg i.p.,26.0
same,% T/C (MST/MST control×100),B16 melanoma; 20 mg/kg i.p.,149%
same,median survival time (MST),B16 melanoma; 20 mg/kg i.p.,29.0
same,% T/C (MST/MST control×100),B16 melanoma; 30 mg/kg i.p.,164%
same,median survival time (MST),B16 melanoma; 30 mg/kg i.p.,32.0
same,number of mice alive (MA),"B16 melanoma; mouse, in vivo",10/10
same,% T/C (MST/MST control×100),L1210 leukaemia; 40 mg/kg i.p.,154%
same,median survival time (MST),L1210 leukaemia; 40 mg/kg i.p.,10.0
same,% T/C (MST/MST control×100),L1210 leukaemia; 80 mg/kg i.p.,177%
same,median survival time (MST),L1210 leukaemia; 80 mg/kg i.p.,11.5
same,% T/C (MST/MST control×100),L1210 leukaemia; 120 mg/kg i.p.,177%
same,median survival time (MST),L1210 leukaemia; 120 mg/kg i.p.,11.5
same,% T/C (MST/MST control×100),L1210 leukaemia; 160 mg/kg i.p.,192%
same,median survival time (MST),L1210 leukaemia; 160 mg/kg i.p.,12.5
same,number of mice alive (MA),"L1210 leukaemia; mouse, in vivo",6/6
same,Blood conc. of Pt,"[1]; mouse, in vivo, po, 1 h",0.88 ± 0.05 μg/ml of whole blood
same,Blood conc. of Pt,"[1]; mouse, in vivo, po, 2 h",1.21 ± 0.16 μg/ml of whole blood
same,Blood conc. of Pt,"[1]; mouse, in vivo, po, 4 h",0.82 ± 0.12 μg/ml of whole blood
same,Blood conc. of Pt,"[1]; mouse, in vivo, po, 7 h",0.32 ± 0.05 μg/ml of whole blood
same,Blood conc. of Pt,"[1]; mouse, in vivo, po, 24 h",0.20 ± 0.03 μg/ml of whole blood
same,Cage wash (cumulative %),"[1]; mouse, in vivo, po, 24 h",7.1 ± 0.7%
same,Faeces dose (cumulative %),"[1]; mouse, in vivo, po, 24 h",57.6 ± 3.5%
same,Urine dose (cumulative %),"[1]; mouse, in vivo, po, 24 h",16.8 ± 2.4%
same,Blood conc. of Pt,"[1]; mouse, in vivo, po, 48 h",0.20 ± 0.03 μg/ml of whole blood
same,Cage wash (cumulative %),"[1]; mouse, in vivo, po, 48 h",8.0 ± 0.9%
same,Faeces dose (cumulative %),"[1]; mouse, in vivo, po, 48 h",59.8 ± 3.6%
same,Urine dose (cumulative %),"[1]; mouse, in vivo, po, 48 h",18.2 ± 2.4%
same,LD50 (dose level causing 50% deaths),[2],1600 mg/kg
"N.N.[Cl][Pt][Cl] [cisplatin, cis-diamminedichloroplatinum(II), reference compound]",ED90 (dose level causing a 90% reduction in tumor size),ADJ/PC6A plasmacytoma,24 mg/kg
same,% T/C (MST/MST control×100),B16 melanoma; 0.4 mg/kg,131%
same,median survival time (MST),B16 melanoma; 0.4 mg/kg,25.5
same,number of mice alive (MA),"B16 melanoma; 0.4 mg/kg, 9 daily doses, at Day 10",10/10
same,average weight change (AWC),"B16 melanoma; 0.4 mg/kg, 9 daily doses",-0.9 g
same,% T/C (MST/MST control×100),B16 melanoma; 0.8 mg/kg,164%
same,median survival time (MST),B16 melanoma; 0.8 mg/kg,32.0
same,number of mice alive (MA),"B16 melanoma; 0.8 mg/kg, 9 daily doses, at Day 10",10/10
same,average weight change (AWC),"B16 melanoma; 0.8 mg/kg, 9 daily doses",-1.5 g
same,% T/C (MST/MST control×100),B16 melanoma; 1.6 mg/kg,187%
same,median survival time (MST),B16 melanoma; 1.6 mg/kg,36.5
same,number of mice alive (MA),"B16 melanoma; 1.6 mg/kg, 9 daily doses, at Day 10",10/10
same,average weight change (AWC),"B16 melanoma; 1.6 mg/kg, 9 daily doses",-3.1 g
same,% T/C (MST/MST control×100),B16 melanoma; 2.4 mg/kg,231%
same,median survival time (MST),B16 melanoma; 2.4 mg/kg,45.0
same,number of mice alive (MA),"B16 melanoma; 2.4 mg/kg, 9 daily doses, at Day 10",10/10
same,average weight change (AWC),"B16 melanoma; 2.4 mg/kg, 9 daily doses",-3.9 g
same,% T/C (MST/MST control×100),L1210 leukaemia; 4 mg/kg,146%
same,median survival time (MST),L1210 leukaemia; 4 mg/kg,9.5
same,number of mice alive (MA),"L1210 leukaemia; 4 mg/kg, single dose, at Day 5",6/6
same,average weight change (AWC),"L1210 leukaemia; 4 mg/kg, single dose",-0.8 g
same,% T/C (MST/MST control×100),L1210 leukaemia; 6 mg/kg,169%
same,median survival time (MST),L1210 leukaemia; 6 mg/kg,11.0
same,number of mice alive (MA),"L1210 leukaemia; 6 mg/kg, single dose, at Day 5",6/6
same,average weight change (AWC),"L1210 leukaemia; 6 mg/kg, single dose",-3.2 g
same,% T/C (MST/MST control×100),L1210 leukaemia; 8 mg/kg,192%
same,median survival time (MST),L1210 leukaemia; 8 mg/kg,12.5
same,number of mice alive (MA),"L1210 leukaemia; 8 mg/kg, single dose, at Day 5",6/6
same,average weight change (AWC),"L1210 leukaemia; 8 mg/kg, single dose",-4.6 g
same,% T/C (MST/MST control×100),L1210 leukaemia; 10 mg/kg,123%
same,median survival time (MST),L1210 leukaemia; 10 mg/kg,8.0
same,number of mice alive (MA),"L1210 leukaemia; 10 mg/kg, single dose, at Day 5",6/6
same,average weight change (AWC),"L1210 leukaemia; 10 mg/kg, single dose",-4.7 g
same,treatment of malignant tumor,malignant tumor,effective for the treatment of certain forms of malignant tumor in humans
